Reference: patent US20240246920A1, “TRIAZOLE DERIVATIVES WITH ANTIFUNGAL ACTIVITY” (King's College London, priority 2020, published 2024)
In brackets after ≈: the same amount, converted by molar mass.

What was measured:
C. albicans NCPF3281 = assay: Candida panel MIC, serial dilution in 96-well plates; type: cell-based, Candida albicans; details: Candida albicans, NCPF3281; Table 4, common panel; 24 hours, ≥50% inhibition; read-out: MIC C. albicans NCPF3281
Description: (§1) The minimum inhibitory concentration of test compounds were determined in a panel of Candida species (see Table 4 below), using the a serial dilution method in 96-well plates using the following protocol.
(§2) Starter cultures of fungal strains to be tested were grown in 3 mL of RPMI 2% glucose media incubated at 37° C. with shaking at 200 rpm overnight. The culture media used was 900 mL H2O; 10.4 g RPMI 1640 (with L-glutamine and a pH indicator but without bicarbonate); 34.5 g MOPS and 18 g glucose. The pH of the media was adjusted to 7.0 with 1 M sodium hydroxide.
(§3) Solutions of the compound to be tested were prepared by dissolving the compound in DMSO and subsequently into media to the desired concentrations. 200 μL of compound solution was then added to the wells of the 96-well plate using a serial dilution method row-by row of the plate to give a compound concentration gradient across the plate of from 128 μg/mL to 0.25 μg/mL. The last two rows of each plate were control rows containing the culture media alone and the media plus fungi.
(§4) The fungi starter cultures were diluted 1:10 in water in cuvettes. This was then further diluted to an optical density (OD600) of 0.01 in media. 100 μL of the fungi was added to each well giving a starting concentration of fungus of 0.5-5×10^5/mL. One species of fungus was used on each plate. The plates were then held at 37° C. for 24 hours.
(§5) A plate reader was used to measure growth in each well at OD530 nm and the MIC was determined for each test compound. The MIC is defined as the lowest concentration giving rise to inhibition of ≥50% of that of the drug-free control well containing the fungus and media.

C. tropicalis NCPF8760 = assay: as above; type: cell-based; details: NCPF8760, Table 4, common panel, 24 hours, ≥50% inhibition, read-out: MIC C. tropicalis NCPF8760
Description: as §1, §2, §3, §4, §5

Candida auris TDG1102 = assay: as above; type: cell-based; details: Candidozyma auris, TDG1102; Table 4, extended panel; 24 hours, ≥50% inhibition; read-out: MIC Candida auris TDG1102
Description: as §1, §2, §3, §4, §5

C. auris TDG1912 = assay: as above; type: cell-based; details: Candidozyma auris, TDG1912; Table 4; 24 hours, ≥50% inhibition; read-out: MIC C. auris TDG1912
Description: as §1, §2, §3, §4, §5

Candida auris TDG2512 = assay: as above; type: cell-based; details: Candidozyma auris, TDG2512; Table 4, extended panel; 24 hours, ≥50% inhibition; read-out: MIC Candida auris TDG2512
Description: as §1, §2, §3, §4, §5

Candida auris TDG2506 = assay: microbe, parasite or virus in culture; type: cell-based; details: Candidozyma auris, TDG2506; Table 4, extended panel; 24 hours, ≥50% inhibition; read-out: MIC Candida auris TDG2506
Description: as §1, §2
(§6) Solutions of the compound to be tested were prepared by dissolving the compound in DMSO and subsequently into media to the desired concentrations. […] The last two rows of each plate were control rows containing the culture media alone and the media plus fungi.
as §4, §5
(§7) The Candida auris strains shown in Table 7 were either taken from the National Collection of Pathogenic Fungi (NCPF) or collected as part of ongoing surveillance studies. The strains were characterised as follows.

Candida auris TDG2211 = assay: microbe, parasite or virus in culture; type: cell-based; details: Candidozyma auris, TDG2211; Table 4, extended panel; 24 hours, ≥50% inhibition; read-out: MIC Candida auris TDG2211
Description: as §1, §2, §6, §4, §5, §7

C. parapsilosis NCPF3209 = assay: microbe, parasite or virus in culture; type: cell-based, Candida parapsilosis; details: Lodderomyces parapsilosis, NCPF3209; Table 4, common panel; 24 hours, ≥50% inhibition; read-out: MIC C. parapsilosis NCPF3209
Description: as §1, §2, §6, §4, §5

C. krusei NCPF3876 = assay: microbe, parasite or virus in culture; type: cell-based, Candida krusei; details: Pichia kudriavzevii, NCPF3876; Table 4, common panel; 24 hours, ≥50% inhibition; read-out: MIC C. krusei NCPF3876
Description: as §1, §2, §6, §4, §5

C. auris 8971 = assay: Candida panel MIC, serial dilution in 96-well plates; type: cell-based, Candida auris; details: Candidozyma auris, 8971; Table 4, extended panel; 24 hours, ≥50% inhibition; read-out: MIC C. auris 8971
Description: as §1, §2, §6, §4, §5, §7

C. auris 8984 = assay: as above; type: cell-based, Candida auris; details: Candidozyma auris, 8984; Table 4, extended panel; 24 hours, ≥50% inhibition; read-out: MIC C. auris 8984
Description: as §1, §2, §6, §4, §5, §7

C. auris 8977 = assay: as above; type: cell-based, Candida auris; details: Candidozyma auris, 8977; Table 4, extended panel; 24 hours, ≥50% inhibition; read-out: MIC C. auris 8977
Description: as §1, §2, §6, §4, §5, §7

C. glabrata NCPF8018 = assay: as above; type: cell-based, Candida glabrata; details: Nakaseomyces glabratus, NCPF8018; Table 4, common panel; 24 hours, ≥50% inhibition; read-out: MIC C. glabrata NCPF8018
Description: as §1, §2, §6, §4, §5

Question: Which results are given for `COCCOc1ccc(NC2CCN(CC(O)(Cn3cncn3)c3ccc(F)cc3F)CC2)cc1` (centres unmarked) [Example 96]?
Answer: MIC (C. albicans NCPF3281): 0.0078 to 0.0156 µg/mL (≈ 0.016 to 0.032 µM); MIC (C. tropicalis NCPF8760): 1 µg/mL (≈ 2.05 µM); MIC (Candida auris TDG1102): 0.06 µg/mL (≈ 0.123 µM); MIC (C. auris TDG1912): 0.125 µg/mL (≈ 0.256 µM); MIC (Candida auris TDG2512): 4 µg/mL (≈ 8.2 µM); MIC (Candida auris TDG2506): 0.06 µg/mL (≈ 0.123 µM); MIC (Candida auris TDG2211): 0.0156 to 0.06 µg/mL (≈ 0.032 to 0.123 µM); MIC (C. parapsilosis NCPF3209): 0.0156 µg/mL (≈ 0.032 µM); MIC (C. krusei NCPF3876): 0.5 µg/mL (≈ 1.03 µM); MIC (C. auris 8971): 0.06 µg/mL (≈ 0.123 µM); MIC (C. auris 8984): 0.25 µg/mL (≈ 0.513 µM); MIC (C. auris 8977): 0.06 µg/mL (≈ 0.123 µM); MIC (C. glabrata NCPF8018): 4 µg/mL (≈ 8.2 µM)

Question: With `CN1CCC(Oc2ccc(NC3CCN(CC(O)(Cn4cncn4)c4ccc(F)cc4F)CC3)cc2)CC1` (centres unmarked) [Example 98] as the molecule, how does the MIC (C. albicans NCPF3281) read?
Answer: 0.125 µg/mL (≈ 0.237 µM)

Question: And the MIC (C. tropicalis NCPF8760)?
Answer: > 8 µg/mL

Question: What about the MIC (Candida auris TDG1102) of the same molecule?
Answer: > 8 µg/mL

Question: And the MIC (C. auris TDG1912)?
Answer: > 8 µg/mL

Question: And the MIC (Candida auris TDG2512)?
Answer: 2 µg/mL (≈ 3.8 µM)

Question: And the MIC (Candida auris TDG2506)?
Answer: > 8 µg/mL

Question: What about the MIC (Candida auris TDG2211) of the same molecule?
Answer: > 8 µg/mL

Question: What about the MIC (C. parapsilosis NCPF3209) of the same molecule?
Answer: 0.125 µg/mL (≈ 0.237 µM)

Question: What about the MIC (C. krusei NCPF3876) of the same molecule?
Answer: 8 µg/mL (≈ 15.2 µM)

Question: And the MIC (C. auris 8971)?
Answer: 8 µg/mL (≈ 15.2 µM)

Question: What about the MIC (C. auris 8984) of the same molecule?
Answer: > 8 µg/mL

Question: What about the MIC (C. auris 8977) of the same molecule?
Answer: 8 µg/mL (≈ 15.2 µM)

Question: And the MIC (C. glabrata NCPF8018)?
Answer: 8 µg/mL (≈ 15.2 µM)

Question: `Cc1ccc(-c2ccc(NC3C[C@@H]4CN(CC(O)(Cn5cncn5)c5ccc(F)cc5F)C[C@@H]4C3)cc2)cc1F` (some centres unmarked) [Example 99] was tested. Which MIC (C. albicans NCPF3281) did it give?
Answer: ≤ 0.03 µg/mL

Question: What about the MIC (C. tropicalis NCPF8760) of the same molecule?
Answer: > 32 µg/mL

Question: And the MIC (Candida auris TDG1102)?
Answer: 16 to 32 µg/mL (≈ 29.2 to 58.4 µM)

Question: What about the MIC (C. auris TDG1912) of the same molecule?
Answer: 16 µg/mL (≈ 29.2 µM)

Question: And the MIC (Candida auris TDG2512)?
Answer: 0.5 µg/mL (≈ 0.913 µM)

Question: What about the MIC (Candida auris TDG2506) of the same molecule?
Answer: 32 µg/mL (≈ 58.4 µM)

Question: What about the MIC (Candida auris TDG2211) of the same molecule?
Answer: 0.125 to 16 µg/mL (≈ 0.228 to 29.2 µM)

Question: What about the MIC (C. parapsilosis NCPF3209) of the same molecule?
Answer: ≤ 0.03 µg/mL

Question: What about the MIC (C. krusei NCPF3876) of the same molecule?
Answer: 1 µg/mL (≈ 1.83 µM)

Question: What about the MIC (C. auris 8971) of the same molecule?
Answer: 1 to 4 µg/mL (≈ 1.83 to 7.3 µM)

Question: What about the MIC (C. auris 8984) of the same molecule?
Answer: 32 µg/mL (≈ 58.4 µM)

Question: And the MIC (C. auris 8977)?
Answer: 1 to 4 µg/mL (≈ 1.83 to 7.3 µM)

Question: And the MIC (C. glabrata NCPF8018)?
Answer: 8 µg/mL (≈ 14.6 µM)

Question: What does the source list for `OC(CN1C[C@H]2CC(Nc3ccc(N4CCCCC4)cc3)C[C@H]2C1)(Cn1cncn1)c1ccc(F)cc1F` (some centres unmarked) [Example 100]?
Answer: MIC (C. albicans NCPF3281): ≤ 0.03 µg/mL; MIC (C. tropicalis NCPF8760): 8 µg/mL (≈ 15.3 µM); MIC (Candida auris TDG1102): 16 µg/mL (≈ 30.6 µM); MIC (C. auris TDG1912): 8 µg/mL (≈ 15.3 µM); MIC (Candida auris TDG2512): 0.25 µg/mL (≈ 0.478 µM); MIC (Candida auris TDG2506): 4 µg/mL (≈ 7.65 µM); MIC (Candida auris TDG2211): 2 µg/mL (≈ 3.83 µM); MIC (C. parapsilosis NCPF3209): ≤ 0.03 µg/mL; MIC (C. krusei NCPF3876): 2 µg/mL (≈ 3.83 µM); MIC (C. auris 8971): 1 µg/mL (≈ 1.91 µM); MIC (C. auris 8984): 4 µg/mL (≈ 7.65 µM); MIC (C. auris 8977): 2 µg/mL (≈ 3.83 µM); MIC (C. glabrata NCPF8018): 2 µg/mL (≈ 3.83 µM)

Question: For `OC(CN1C[C@H]2CC(Nc3ccc(F)cc3)C[C@H]2C1)(Cn1cncn1)c1ccc(F)cc1F` (some centres unmarked) [Example 101], which MIC (C. albicans NCPF3281) is on record?
Answer: ≤ 0.03 µg/mL

Question: What about the MIC (C. tropicalis NCPF8760) of the same molecule?
Answer: 4 µg/mL (≈ 8.74 µM)

Question: What about the MIC (Candida auris TDG1102) of the same molecule?
Answer: 2 µg/mL (≈ 4.37 µM)

Question: What about the MIC (C. auris TDG1912) of the same molecule?
Answer: 1 µg/mL (≈ 2.19 µM)

Question: What about the MIC (Candida auris TDG2512) of the same molecule?
Answer: 0.125 µg/mL (≈ 0.273 µM)

Question: And the MIC (Candida auris TDG2506)?
Answer: 4 µg/mL (≈ 8.74 µM)

Question: And the MIC (Candida auris TDG2211)?
Answer: 0.125 to 2 µg/mL (≈ 0.273 to 4.37 µM)

Question: What about the MIC (C. parapsilosis NCPF3209) of the same molecule?
Answer: ≤ 0.03 µg/mL

Question: And the MIC (C. krusei NCPF3876)?
Answer: 1 µg/mL (≈ 2.19 µM)

Question: And the MIC (C. auris 8971)?
Answer: 0.25 µg/mL (≈ 0.546 µM)

Question: What about the MIC (C. auris 8984) of the same molecule?
Answer: 4 µg/mL (≈ 8.74 µM)

Question: What about the MIC (C. auris 8977) of the same molecule?
Answer: 0.25 µg/mL (≈ 0.546 µM)

Question: What about the MIC (C. glabrata NCPF8018) of the same molecule?
Answer: 0.5 µg/mL (≈ 1.09 µM)
